According to the NIST ThermoML archive (doi:10.1021/je900888e):

Experiment: mn = molality of the nth substance listed, in mol/kg
Details: 101 kPa, Liquid; for speed of sound: Pulse-echo method

CCCC[P+](CCCC)(CCCC)CCCC.[Br-] [tetrabutylphosphonium bromide] + CC#N
Details | mass density, 288.15 K [kg/m3] | mass density, 293.15 K [kg/m3] | mass density, 298.15 K [kg/m3] | mass density, 303.15 K [kg/m3] | mass density, 308.15 K [kg/m3] | mass density, 313.15 K [kg/m3] | mass density, 323.15 K [kg/m3] | speed of sound, 298.15 K [m/s]
m1 = 0.007874 | 787.927 | 782.552 | 777.157 | 771.738 | 766.288 | 760.805 | 749.733 | –
m1 = 0.01066 | 788.155 | 782.783 | 777.389 | 771.974 | 766.524 | 761.045 | 749.978 | –
m1 = 0.01465 | 788.477 | 783.109 | 777.721 | 772.308 | 766.862 | 761.385 | 750.325 | –
m1 = 0.01965 | 788.885 | 783.521 | 778.136 | 772.724 | 767.283 | 761.811 | 750.761 | –
m1 = 0.02448 | 789.275 | 783.912 | 778.532 | 773.125 | 767.689 | 762.22 | 751.178 | –
m1 = 0.0297 | 789.7 | 784.34 | 778.965 | 773.559 | 768.128 | 762.662 | 751.631 | –
m1 = 0.03509 | 790.132 | 784.784 | 779.405 | 774.005 | 768.58 | 763.119 | 752.095 | –
m1 = 0.03974 | 790.506 | 785.156 | 779.78 | 774.389 | 768.965 | 763.508 | 752.488 | 1280.1
m1 = 0.04929 | 791.273 | 785.93 | 780.567 | 775.178 | 769.76 | 764.31 | 753.307 | 1280.5
m1 = 0.06938 | 792.879 | 787.551 | 782.208 | 776.834 | 771.429 | 765.995 | 755.023 | 1281.4
m1 = 0.08849 | 794.411 | 789.095 | 783.76 | 778.399 | 773.011 | 767.591 | 756.649 | 1282.2
m1 = 0.1056 | 795.783 | 790.48 | 785.156 | 779.812 | 774.43 | 769.023 | 758.107 | –
m1 = 0.1224 | 797.155 | 791.858 | 786.545 | 781.208 | 775.841 | 770.445 | 759.553 | –
m1 = 0.1338 | 798.088 | 792.8 | 787.494 | 782.156 | 776.78 | 771.4 | 760.532 | 1284.1
m1 = 0.1414 | 798.688 | 793.405 | 788.102 | 782.773 | 777.428 | 772.045 | 761.174 | –
m1 = 0.1504 | 799.412 | 794.136 | 788.839 | 783.514 | 778.17 | 772.795 | 761.945 | –
m1 = 0.1671 | 800.758 | 795.492 | 790.206 | 784.9 | 779.563 | 774.2 | 763.372 | 1285.6
m1 = 0.1811 | 801.879 | 796.621 | 791.346 | 786.047 | 780.72 | 775.365 | 764.561 | –
m1 = 0.1987 | 803.297 | 798.049 | 792.784 | 787.498 | 782.184 | 776.843 | 766.064 | 1287
m1 = 0.2296 | 805.781 | 800.553 | 795.309 | 790.042 | 784.751 | 779.433 | 768.697 | 1288.3
m1 = 0.2599 | 808.22 | 803.012 | 797.78 | 792.541 | 787.27 | 781.973 | 771.277 | 1289.5
m1 = 0.2925 | 810.865 | 805.677 | 800.473 | 795.247 | 789.997 | 784.72 | 774.075 | 1290.8
m1 = 0.3259 | 813.591 | 808.424 | 803.241 | 798.038 | 792.811 | 787.558 | 776.962 | 1292.2

CCO [ethanol] + CCCC[P+](CCCC)(CCCC)CCCC.[Br-]
m2 = 0
Details | mass density [kg/m3]
288.15 K | 793.628
293.15 K | 789.354
298.15 K | 785.063
303.15 K | 780.745
308.15 K | 776.392
313.15 K | 772
323.15 K | 763.084

CCCC[P+](CCCC)(CCCC)CCCC.[Br-] [tetrabutylphosphonium bromide] + CCCCO
Details | mass density, 288.15 K [kg/m3] | mass density, 293.15 K [kg/m3] | mass density, 298.15 K [kg/m3] | mass density, 303.15 K [kg/m3] | mass density, 308.15 K [kg/m3] | mass density, 313.15 K [kg/m3] | mass density, 323.15 K [kg/m3] | speed of sound, 298.15 K [m/s]
m1 = 0.009722 | 813.972 | 810.179 | 806.37 | 802.533 | 798.665 | 794.76 | 786.817 | –
m1 = 0.01455 | 814.314 | 810.525 | 806.716 | 802.882 | 799.017 | 795.113 | 787.175 | –
m1 = 0.01936 | 814.655 | 810.867 | 807.061 | 803.227 | 799.366 | 795.464 | 787.531 | 1240.1
m1 = 0.0242 | 814.996 | 811.209 | 807.404 | 803.574 | 799.712 | 795.815 | 787.89 | –
m1 = 0.02918 | 815.348 | 811.563 | 807.767 | 803.93 | 800.07 | 796.175 | 788.253 | –
m1 = 0.0369 | 815.894 | 812.109 | 808.382 | 804.48 | 800.621 | 796.727 | 788.815 | 1241
m1 = 0.05364 | 817.07 | 813.293 | 809.495 | 805.673 | 801.825 | 797.943 | 790.046 | 1242
m1 = 0.07129 | 818.321 | 814.549 | 810.756 | 806.941 | 803.095 | 799.213 | 791.333 | 1243
m1 = 0.09251 | 819.818 | 816.049 | 812.265 | 808.455 | 804.62 | 800.743 | 792.887 | 1244.1
m1 = 0.1101 | 821.058 | 817.297 | 813.514 | 809.71 | 805.879 | 802.009 | 794.162 | 1245.1
m1 = 0.1395 | 823.126 | 819.37 | 815.598 | 811.804 | 807.981 | 804.127 | 796.295 | 1246.7
m1 = 0.1776 | 825.836 | 822.089 | 818.326 | 814.54 | 810.729 | 806.888 | 799.08 | 1248.8
m1 = 0.218 | 828.688 | 824.949 | 821.197 | 817.424 | 813.625 | 809.794 | 802.026 | 1251.1
m1 = 0.2537 | 831.238 | 827.51 | 823.765 | 820.001 | 816.21 | 812.388 | 804.641 | 1252.9
m1 = 0.2955 | 834.232 | 830.511 | 826.778 | 823.022 | 819.242 | 815.431 | 807.714 | 1255.3
m1 = 0.3323 | 836.873 | 833.16 | 829.434 | 825.687 | 821.922 | 818.127 | 810.433 | 1257.1
